Data on 27 compounds can be found in patent US9604975B2, “Indolyl-pyridone derivatives having checkpoint kinase 1 inhibitory activity” (Vernalis (R&D) Ltd., priority 2009, dated 2017).

Some results are limits rather than exact numbers.

For the assay, the target named is T1, CHK1 (Homo sapiens, UniProt O14757).
T1 construct: His; purchased Invitrogen
T1 sequence (O14757 1-476): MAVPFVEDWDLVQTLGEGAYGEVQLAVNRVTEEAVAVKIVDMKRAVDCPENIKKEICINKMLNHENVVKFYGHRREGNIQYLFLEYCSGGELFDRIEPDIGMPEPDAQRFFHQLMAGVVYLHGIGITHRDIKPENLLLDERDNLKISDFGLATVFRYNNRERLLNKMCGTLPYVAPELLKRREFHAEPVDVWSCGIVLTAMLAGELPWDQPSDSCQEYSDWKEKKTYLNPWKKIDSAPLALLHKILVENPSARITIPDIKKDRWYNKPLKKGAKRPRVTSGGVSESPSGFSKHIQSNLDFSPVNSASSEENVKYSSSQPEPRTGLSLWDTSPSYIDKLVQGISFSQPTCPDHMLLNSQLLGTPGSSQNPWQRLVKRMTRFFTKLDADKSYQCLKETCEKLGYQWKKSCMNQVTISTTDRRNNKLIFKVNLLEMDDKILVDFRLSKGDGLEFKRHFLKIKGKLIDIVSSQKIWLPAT
Kind of assay: CHK1 Enzyme Assay (phosphorylation of Chktide peptide, 33P-ATP filter assay). Type of assay: biochemical. The settings on record: 12.5 nM His-CHK1, 0.01 mM ATP, 40 minutes at 30° C.; read-out: CHK1 Enzyme Activity (IC50 range). The method, then:
Assays for the CHK1 kinase activity were carried out by monitoring the phosphorylation of a synthetic peptide Chktide with the amino acid sequence, […]. The assay mixture containing the inhibitor and CHK1 enzyme was mixed together in a microtiter plate in a final volume of 50 μl and incubated for 40 minutes at 30° C.
The assay mixture contained 0.01 mM unlabeled ATP, 0.5 μCi ^33P-γ-ATP, 14.8 μM Chktide, 0.1 mg/mL BSA, 50 mM Hepes-NaOH pH 7.5 and 12.5 nM His-CHK1 (Invitrogen) enzyme. The reaction was stopped by adding 50 μL of 50 mM phosphoric acid. 90 μL of the mixture was transferred to a pre-wetted 96-well multi-screen MAPHNOB filtration plate (Millipore) and filtered on a vacuum manifold. The filter plate was washed with 3 successive additions of 200 μl 50 mM phosphoric acid and then with 100 μL methanol. The filtration plate was dried for 10 min at 65° C., scintillant added and phosphorylated peptide quantified in a scintillation counter (Trilux, PerkinElmer).
Turning to `O=C(Nc1cnn(Cc2ccccc2)c1)c1c[nH]c(=O)c(-c2cc3ccccc3[nH]2)c1` [Example 1, 5-(1H-Indol-2-yl)-6-oxo-1,6-dihydro-pyridine-3-carboxylic acid (1-benzyl-1H-pyrazol-4-yl)-amide], the IC50 (usually the concentration needed to halve the response being measured) was < 100 nM. Consider `COc1ccc(Cn2cc(NC(=O)c3c[nH]c(=O)c(-c4cc5ccccc5[nH]4)c3)cn2)cc1` [Example 2, 5-(1H-Indol-2-yl)-6-oxo-1,6-dihydro-pyridine-3-carboxylic acid [1-(4-methoxy-benzyl)-1H-pyrazol-4-yl]-amide], for which the IC50 is 100 to 500 nM. To `Cc1ccccc1Cn1cc(NC(=O)c2c[nH]c(=O)c(-c3cc4ccccc4[nH]3)c2)cn1` [Example 3, 5-(1H-Indol-2-yl)-6-oxo-1,6-dihydro-pyridine-3-carboxylic acid [1-(2-methyl-benzyl)-1H-pyrazol-4-yl]-amide] belongs 500 to 1500 nM. With `Cc1cccc(Cn2cc(NC(=O)c3c[nH]c(=O)c(-c4cc5ccccc5[nH]4)c3)cn2)c1` [Example 4, 5-(1H-Indol-2-yl)-6-oxo-1,6-dihydro-pyridine-3-carboxylic acid[1-(3-methyl-benzyl)-1H-pyrazol-4-yl]-amide], the IC50 is < 100 nM. Consider `Cc1ccc(Cn2cc(NC(=O)c3c[nH]c(=O)c(-c4cc5ccccc5[nH]4)c3)cn2)cc1` [Example 5, 5-(1H-Indol-2-yl)-6-oxo-1,6-dihydro-pyridine-3-carboxylic acid[1-(4-methyl-benzyl)-1H-pyrazol-4-yl]-amide], for which the IC50 was 100 to 500 nM. Turning to `N#Cc1cccc(Cn2cc(NC(=O)c3c[nH]c(=O)c(-c4cc5ccccc5[nH]4)c3)cn2)c1` [Example 6, 5-(1H-Indol-2-yl)-6-oxo-1,6-dihydro-pyridine-3-carboxylic acid [1-(3-cyano-benzyl)-1H-pyrazol-4-yl]-amide], the IC50 is 100 to 500 nM. The result for `N#Cc1ccc(Cn2cc(NC(=O)c3c[nH]c(=O)c(-c4cc5ccccc5[nH]4)c3)cn2)cc1` [Example 7, 5-(1H-Indol-2-yl)-6-oxo-1,6-dihydro-pyridine-3-carboxylic acid [1-(4-cyano-benzyl)-1H-pyrazol-4-yl]-amide] reads 500 to 1500 nM; that for `O=C(Nc1cnn(Cc2ccccc2F)c1)c1c[nH]c(=O)c(-c2cc3ccccc3[nH]2)c1` [Example 8, 5-(1H-Indol-2-yl)-6-oxo-1,6-dihydro-pyridine-3-carboxylic acid [1-(2-fluoro-benzyl)-1H-pyrazol-4-yl]-amide], 100 to 500 nM; that for `O=C(Nc1cnn(Cc2cccc(F)c2)c1)c1c[nH]c(=O)c(-c2cc3ccccc3[nH]2)c1` [Example 9, 5-(1H-Indol-2-yl)-6-oxo-1,6-dihydro-pyridine-3-carboxylic acid [1-(3-fluoro-benzyl)-1H-pyrazol-4-yl]-amide], < 100 nM.

In the case of `O=C(Nc1cnn(Cc2ccc(F)cc2)c1)c1c[nH]c(=O)c(-c2cc3ccccc3[nH]2)c1` [Example 10, 5-(1H-Indol-2-yl)-6-oxo-1,6-dihydro-pyridine-3-carboxylic acid [1-(4-fluoro-benzyl)-1H-pyrazol-4-yl]-amide], the IC50 was < 100 nM. To `O=C(Nc1cnn(Cc2ccc(F)c(F)c2)c1)c1c[nH]c(=O)c(-c2cc3ccccc3[nH]2)c1` [Example 11, 5-(1H-Indol-2-yl)-6-oxo-1,6-dihydro-pyridine-3-carboxylic acid [1-(3,4-difluoro-benzyl)-1H-pyrazol-4-yl]-amide] belongs < 100 nM. For the compound `O=C(Nc1cnn(Cc2ccc(Cl)cc2)c1)c1c[nH]c(=O)c(-c2cc3ccccc3[nH]2)c1` [Example 12, 5-(1H-Indol-2-yl)-6-oxo-1,6-dihydro-pyridine-3-carboxylic acid [1-(4-chloro-benzyl)-1H-pyrazol-4-yl]-amide], the IC50 was in the range of 100 to 500 nM. With `O=C(Nc1cnn(Cc2cc(F)cc(F)c2)c1)c1c[nH]c(=O)c(-c2cc3ccccc3[nH]2)c1` [Example 13, 5-(1H-Indol-2-yl)-6-oxo-1,6-dihydro-pyridine-3-carboxylic acid [1-(3,5-difluoro-benzyl)-1H-pyrazol-4-yl]-amide], the IC50 was < 100 nM. Regarding `Cc1ccc(Cn2cc(NC(=O)c3c[nH]c(=O)c(-c4cc5ccccc5[nH]4)c3)cn2)cc1F` [Example 14, 5-(1H-Indol-2-yl)-6-oxo-1,6-dihydro-pyridine-3-carboxylic acid [1-(3-fluoro-4-methyl-benzyl)-1H-pyrazol-4-yl]-amide], the half-maximal inhibitory concentration (IC50) lay within 100 to 500 nM.

Regarding `CN1CCN(C(=O)c2ccc3[nH]c(-c4cc(C(=O)Nc5cnn(Cc6ccccc6)c5)c[nH]c4=O)cc3c2)CC1` [Example 15, 5-[5-(4-Methyl-piperazine-1-carbonyl)-1H-indol-2-yl]-6-oxo-1,6-dihydro-pyridine-3-carboxylic acid (1-benzyl-1H-pyrazol-4-yl)-amide], the IC50 is < 100 nM.

For the compound `O=C(Nc1cnn(Cc2ccccc2)c1)c1c[nH]c(=O)c(-c2cc3cc(CN4CCNCC4)ccc3[nH]2)c1` [Example 16, 6-oxo-5-(5-piperazin-1-ylmethyl-1H-indol-2-yl)-1,6-dihydro-pyridine-3-carboxylic acid (1-benzyl-1H-pyrazol-4-yl)-amide], the IC50 was < 100 nM. Consider `Cc1[nH]c(=O)c(-c2cc3ccccc3[nH]2)cc1C(=O)Nc1cnn(Cc2ccccc2)c1` [Example 17, 5-(1H-Indol-2-yl)-2-methyl-6-oxo-1,6-dihydro-pyridine-3-carboxylic acid (1-benzyl-1H-pyrazol-4-yl)-amide], for which the half-inhibitory concentration (IC50) fell in the range of 500 to 1500 nM. With `Cc1[nH]c(=O)c(-c2cc3ccccc3[nH]2)cc1C(=O)Nc1cnn(Cc2cccc(F)c2)c1` [Example 18, 5-(1H-Indol-2-yl)-2-methyl-6-oxo-1,6-dihydro-pyridine-3-carboxylic acid [1-(3-fluoro-benzyl)-1H-pyrazol-4-yl]-amide], the IC50 is 500 to 1500 nM. Regarding `Cc1[nH]c(=O)c(-c2cc3ccccc3[nH]2)cc1C(=O)Nc1cnn(Cc2ccc(F)c(F)c2)c1` [Example 19, 5-(1H-Indol-2-yl)-2-methyl-6-oxo-1,6-dihydro-pyridine-3-carboxylic acid [1-(3,4-difluoro-benzyl)-1H-pyrazol-4-yl]-amide], the IC50 was 100 to 500 nM. The result for `O=C(Nc1c[nH]c(=O)c(-c2cc3ccccc3[nH]2)c1)c1cnn(Cc2ccc(F)cc2)c1` [Example 21, 1-(4-Fluoro-benzyl)-1H-pyrazole-4-carboxylic acid [5-(1H-indol-2-yl)-6-oxo-1,6-dihydro-pyridin-3-yl]-amide] reads < 100 nM; that for `O=C(Nc1c[nH]c(=O)c(-c2cc3ccccc3[nH]2)c1)c1cnn(Cc2cccc(F)c2)c1` [Example 22, 1-(3-Fluoro-benzyl)-1H-pyrazole-4-carboxylic acid [5-(1H-indol-2-yl)-6-oxo-1,6-dihydro-pyridin-3-yl]-amide], < 100 nM; that for `O=C(Nc1c[nH]c(=O)c(-c2cc3ccccc3[nH]2)c1)c1cnn(Cc2cccc(C(F)(F)F)c2)c1` [Example 23, 1-(3-Trifluoromethyl-benzyl)-1H-pyrazole-4-carboxylic acid [5-(1H-indol-2-yl)-6-oxo-1,6-dihydro-pyridin-3-yl]-amide], < 100 nM.

For the compound `O=C(Nc1c[nH]c(=O)c(-c2cc3ccccc3[nH]2)c1)c1cnn(Cc2ccc(F)c(F)c2)c1` [Example 24, 1-(3,4-Difluoro-benzyl)-1H-pyrazole-4-carboxylic acid [5-(1H-indol-2-yl)-6-oxo-1,6-dihydro-pyridin-3-yl]-amide], the IC50 is < 100 nM.

On to `O=C(Nc1c[nH]c(=O)c(-c2cc3ccccc3[nH]2)c1)c1cnn(Cc2ccc(C(F)(F)F)cc2)c1` [Example 25, 1-(4-Trifluoromethyl-benzyl)-1H-pyrazole-4-carboxylic acid [5-(1H-indol-2-yl)-6-oxo-1,6-dihydro-pyridin-3-yl]-amide], for which the IC50 was in the range of 100 to 500 nM. The result for `Cc1cccc(Cn2cc(C(=O)Nc3c[nH]c(=O)c(-c4cc5ccccc5[nH]4)c3)cn2)c1` [Example 26, 1-(3-Methyl-benzyl)-1H-pyrazole-4-carboxylic acid [5-(1H-indol-2-yl)-6-oxo-1,6-dihydro-pyridin-3-yl]-amide] reads < 100 nM. On to `O=C(Nc1c[nH]c(=O)c(-c2cc3ccccc3[nH]2)c1)c1cnn(Cc2cccc(Cl)c2)c1` [Example 27, 1-(3-Chloro-benzyl)-1H-pyrazole-4-carboxylic acid [5-(1H-indol-2-yl)-6-oxo-1,6-dihydro-pyridin-3-yl]-amide], for which the half-inhibitory concentration (IC50) was < 100 nM. In the case of `O=C(Nc1c[nH]c(=O)c(-c2cc3ccccc3[nH]2)c1)c1cnn(Cc2ccc(Cl)cc2)c1` [Example 28, 1-(4-Chloro-benzyl)-1H-pyrazole-4-carboxylic acid [5-(1H-indol-2-yl)-6-oxo-1,6-dihydro-pyridin-3-yl]-amide], the concentration for half-maximal inhibition (IC50) was < 100 nM.
